Measurements as given in a melting point compilation (Tetko et al.).

Row | melting point [°C] | Structure (SMILES)
1 | 45.5 to 46.5 | C=CCOc1cccc(O)c1C(C)=O
2 | 46 to 48 | Nc1ccc(CN2CCCC2)cc1
3 | 185 | Nc1ncnc2c1ncn2C1CCC(CO)O1 (stereo unspecified)
4 | 171 | CC(C)=CCCC(C)=CC=CC(C)=CC=CC(C)=CC=CC=C(C)C=CC=C(C)C=CC=C(C)CCCC(C)(C)O
5 | 71.5 | Nc1ccc(C=O)cc1
6 | 136 | c1ccc(-c2ccc3c4c(c5c(c3c2)CCCC5)CCCC4)cc1
7 | 59 to 61 | C=C1N(C(C)=O)c2ccccc2C1(C)C(=O)OC (stereo unspecified)
8 | 43 to 46 | C=CCN1C(=O)CSC1=S
9 | 162 | CC(C)(C)N(NC(=O)c1ccccc1)C(=O)c1ccccc1Cl
10 | 114 | NC=NO
11 | 99 | c1ccc(/N=N/c2ccccc2NNc2ccccc2)cc1
12 | 182 to 183 | O=C(O)c1ccnn1-c1ccccc1
13 | 218 to 221 | CC1C(=O)C23C(O)CC4C(C)(C)CCCC45COC(CC1C2O)C53 (stereo unspecified)
14 | 107 to 108 | Cc1ccccc1-c1cc(-c2ccccc2)[nH]n1
15 | 65 | CCC1(C)CC(=O)NC1=O (stereo unspecified)
16 | 208 | CCOC(=O)C1=C(C)NC(=O)NC1c1ccc([N+](=O)[O-])cc1 (stereo unspecified)
17 | 177 | O=C1/C(=N/Nc2ccncc2)C(C(F)(F)F)=NN1c1ccccc1
18 | 122 to 124 | CC(C)(C)c1ccc(C2CCC3(CC2)Cc2ccc(OS(=O)(=O)C(F)(F)F)cc2C3)cc1 (stereo unspecified)
19 | 139 | COc1ccc(C(=O)C=CC(=O)O)cc1
20 | 55 to 56 | Nc1cnccc1C(F)(F)F
21 | 217 | NC(=O)NN=Cc1ccc([N+](=O)[O-])cc1
22 | 200 | Cc1[nH]c2ccccc2c1CC(=O)O
23 | 186 | CC1CCC2(C)CCC3(C)C(=CCC4C5(C)CCC(O)C(C)(C)C5CCC43C)C2C1C (stereo unspecified)

Row | melting point [°C] | Structure (SMILES)
24 | 235 | O=C(O)[C@H]1NCC[C@@H]1O
25 | 26 | Nc1ccccc1S
26 | 120 to 123 | NC(=S)c1ccc(OCC(F)(F)F)nc1
27 | 150 | CC(=O)C12OC(C)(c3ccccc3)OC1CC1C3CCC4=CC(=O)CCC4(C)C3CCC12C (stereo unspecified)
28 | 118 | N#Cc1ccc(N)cc1Cl
29 | 47 | CCCCCCCCCCCC(=O)c1ccccc1
30 | 129 | CCCC1Nn2c(nnc2-c2cccc([N+](=O)[O-])c2)S1 (stereo unspecified)
31 | 87 to 87.5 | CCOc1c(Br)cc(Br)cc1C=O
32 | -18 | CC(C)=C1OC(=O)C1(C)C
33 | 242 | NCCOP(=O)(O)O
34 | 109 to 113 | O=C(O)c1ccccc1CSc1ccccc1
35 | 30 to 33 | CNc1ccccc1OC
36 | 8 to 9 | FC(F)(F)c1cnc(Cl)c(Cl)c1
37 | 56 | CC(CCC(=O)O)Cc1ccccc1 (stereo unspecified)
38 | 120 | CCN(CC)CCCN(c1ccccc1)C1Cc2ccccc2C1
39 | 166 | COC(=O)c1cccc(C(=O)O)c1
40 | -75 | CCCCOC(=O)CC
41 | 176 to 177 | O=P(c1ccccc1)(c1ccccc1)C1C=COC2=C1CCCC2 (stereo unspecified)
42 | 41 | c1ccc(C(CCN2CCCCC2)c2ccccc2)cc1
43 | 46 | COc1ccc(F)c(F)c1O
44 | 133 | O=C(c1ccco1)c1noc(-c2ccc(Br)cc2)c1S(=O)(=O)c1ccccc1
45 | 49 | FC(F)(F)c1cc(Br)ccc1Br
46 | 121 to 123 | Cc1ccc(COc2ccc(CC#N)cc2)cc1

Row | melting point [°C] | Structure (SMILES)
47 | 69 | CNC(=C[N+](=O)[O-])NCCSCc1ccc(CN(C)C)o1
48 | 237 to 238 | Cc1nc(-c2cnccn2)sc1C(=O)O
49 | 171 to 172 | Cc1nnc2sc(SCc3ccccc3)nn2c1=O
50 | 54 | Oc1cc(F)c(F)c(F)c1
51 | 235 | Nc1cc(N)cc(C(=O)O)c1
52 | 158 to 160 | Sc1nnc(-c2ccc(Cl)cc2Cl)n1Cc1ccco1
53 | 71 | O=C(NC1CCN(Cc2ccccc2)C1)C(F)(F)F (stereo unspecified)
54 | 13 | O=C(O)C(F)(F)C(F)(F)C(F)(F)C(F)(F)C(F)(C(F)(F)F)C(F)(F)F
55 | 84 to 85 | C/C=C/C(=O)N1C(=O)OC[C@@H]1Cc1ccccc1
56 | 68 to 70 | CC(NC(=O)OC(C)(C)C)C(=O)N1CCCC1C(=O)OCc1ccccc1 (stereo unspecified)
57 | 152 to 153 | CN(C)c1ccc(/C=C2\C(=O)C3CCC(C)(C2=O)C3(C)C)cc1 (stereo unspecified)
58 | 148 | N#CC(=Cc1cccs1)c1nc2ccccc2s1
59 | 190 to 193 | O=C(O)c1ccccc1-n1cccn1
60 | 47 | O=Cc1c(F)ccc(F)c1Cl
61 | 146 | COc1cc2ccc(=O)oc2cc1OC
62 | 128 to 134 | O=C1CC2C(CC(OC(=O)c3ccc(-c4ccccc4)cc3)C2CO)O1 (single isomer, unassigned; (-))
63 | 144 | CCOc1ccc2ccccc2c1C(=O)O
64 | 240 | CC(=Cc1ccc(C(=O)O)cc1)c1ccc2c(c1)C(C)(C)CCC2(C)C
65 | 196 | CSc1ccccc1C(=O)N(NC(=O)c1ccccc1)C(C)(C)C
66 | 148 to 150 | COc1ccc2[nH]cc(CC(=O)O)c2c1
67 | 24.5 | CC(C)(O)CCc1ccccc1
68 | 45 | COC(=O)c1ccc(Cl)c(Cl)c1
69 | 262 | CC(=O)Nc1ccc2c(c1)Cc1cc([N+](=O)[O-])ccc1-2

Row | melting point [°C] | Structure (SMILES)
70 | -110 | CC#CC(C)C
71 | 94 to 96 | Cn1nnc2cc(CO)ccc21
72 | 56 | Nc1c(Cl)cc(F)cc1Cl
73 | 124 | O=C(c1cccs1)c1noc(-c2cccc3ccccc23)c1S(=O)(=O)c1ccccc1
74 | 139 | Cc1ccc(NC=CC(=O)c2ccc3c(c2)CCCC3)cc1
75 | 207 to 210 | CSc1nc(N)c(C#N)s1
76 | 168 to 170 | COC(=O)C1Nc2ccccc2C1(C)C (stereo unspecified)
77 | 245 to 252 | CC(C)(C)C(N)P(=O)(O)O (stereo unspecified)
78 | 163 to 165 | O=C(O)C=Cc1c(F)cccc1Cl
79 | 27 | CCCCCCCCCCCCOCCOCCOCCOCCOCCOCCO
80 | 208 | CN(C)Cc1c(O)c(Br)c(C(=O)O)c(Br)c1O
81 | 40 | CCCCCCCCCCCCCCCCCCCc1ccccc1
82 | -108 | CCCCC1CCCC1
83 | 162 | O=C(/C(=N/Nc1ccc(Cl)cc1Cl)S(=O)(=O)c1ccccc1)c1cccc2ccccc12
84 | 117 to 121 | NC1c2ccccc2CC1O (stereo unspecified)
85 | 157 to 158 | CCOC(=O)c1sc2nc(C)cc(C)c2c1N
86 | -29 | CCCCOC(=O)C(=O)OCCCC
87 | 142 | Brc1cccc2c(CNCc3cccc4c(Br)cccc34)cccc12
88 | 41 to 42 | Clc1nccc2occc12
89 | 178 to 184 | CC1(C)NC(=CC(=O)c2ccccc2)C(C)(C)N1O
90 | 50 | CC(C)(C)C(O)C(C)(C)C
91 | 66 to 71 | Brc1ccc2c(c1)OCCOCCOCCOCCO2
92 | 60 to 62 | COC(=O)C1C2(C)C=CC(O2)C1(OC)OC (stereo unspecified)

Row | melting point [°C] | Structure (SMILES)
93 | 44 | Cc1ccc(N=c2sccn2C)c(C)c1
94 | 128 | CCOC(=O)/C(C(N)=S)=C1/NN=C(c2ccccc2O)O1
95 | 5 | Cc1cccc2[nH]ccc12
96 | 166 | O=[N+]([O-])c1ccc(C=NNc2ccccc2)cc1
97 | 137 to 143 | O=CC(C=O)c1ccc(Cl)cc1[N+](=O)[O-]
98 | 199 to 201 | Cn1c(N)c(C=O)c(=O)n(C)c1=O
99 | 161 to 163 | O=C(O)c1cc(I)ccc1Cl
100 | 216 to 218 | Nc1ccc(S(=O)(=O)N2CCOCC2)cc1
101 | 184 | CC(C)=CC(=O)NS(=O)(=O)c1ccc(N)cc1
102 | 166 to 169 | NC(=O)c1c(Cl)cc(C(F)(F)F)cc1Cl
103 | 235 to 236 | Cc1nc2scc(-c3ccccc3)c2c(=O)n1NC(=O)c1ccc(Cl)cc1
104 | 90 | CCN(CCO)CCCC(C)Nc1ccnc2cc(Cl)ccc12 (stereo unspecified)
105 | 151 | CN(C)C(=O)Nc1ccc(Oc2ccc(Cl)cc2)cc1
106 | 100 to 102 | N#Cc1cccc(CS(=O)(=O)Cl)c1
107 | 170 | COc1cc(C)c(Cl)cc1S(N)(=O)=O
108 | 250 | O=c1[nH]cnc2c1ncn2C1CC(O)C(CO)O1 (stereo unspecified)
109 | 127 to 128 | O=C(O)c1cccc(OC(F)(F)C(F)F)c1
110 | 301 to 303 | N#Cc1c(C(F)(F)F)cc(-c2ccccc2)[nH]c1=O
111 | 54 | CCCCCCCOc1ccc(-c2ccc(C#N)cc2)cc1
112 | 69 | O=C1C=CC(=O)N1Cc1ccccc1

Row | Structure (SMILES) | melting point [°C]
113 | CCOC(=O)C(Br)C(=O)OCC | -54
114 | Cn1ccc(S(=O)(=O)Cl)n1 | 36 to 39
115 | CNC(=O)Oc1ccc(SC)c(C)c1 | 118
116 | O=c1[nH]nc([N+](=O)[O-])c(Cl)c1Cl | 184 to 186
117 | Nc1c(Cl)c(Cl)nc(C(=O)O)c1Cl | 218
118 | O=[N+]([O-])c1ccc(Br)c([N+](=O)[O-])c1 | 72
119 | O=C(CBr)c1ccsc1 | 61 to 62
120 | CN1CCN(c2ccc(C=O)cc2)CC1 | 57 to 60
121 | Clc1ccc2ccccc2c1 | 61
122 | BrCc1cc(Br)cc(Br)c1 | 94
123 | CN(C)P(=O)(OP(=O)(N(C)C)N(C)C)N(C)C | 17
124 | C=C(C)C(=O)C(=CC(=O)O)OC | 83
125 | ClCc1csc(-c2cccs2)n1 | 52 to 56
126 | O=[N+]([O-])c1ccc(S(=O)(=O)O)c([N+](=O)[O-])c1 | 108
127 | Fc1cccc(F)c1CCl | 34
128 | CC1CS1 (stereo unspecified) | -91
129 | CC12C=CC3=C4CCC(=O)C=C4CCC3C1CCC2O (stereo unspecified) | 93
130 | O=C(CBr)c1cccs1 | 109 to 111
131 | c1ccc2cc3cc4cc5ccccc5cc4cc3cc2c1 | 300
